Test results: patent publication US20170198044A1, “COMPOSITIONS AND METHODS FOR SAFE AND EFFECTIVE IMMUNOTHERAPY” (TheraMAB LLC, priority 2014, published 2017)

Legend:
Type in all cases: cell-based, human
Treg cells = experiment: Treg-cell vs Tconv-cell expansion and proliferation in HD precultured PBMCs (flow cytometry, Ki67, CFSE); details: 0.01 mM MP, TAB08 1 μg/mL
Procedure: Treg-cell (CD25^hiFoxp3^+) and activated Tconv-cell (CD25^loFoxp3^−) frequencies among gated CD4^+ T cells were then assessed by flow cytometry using a live light-scatter entrance gate. […] Treg-cell frequencies among CD4^+ T cells and absolute numbers of Treg cells were determined by flow cytometry after 5 days of culture. […] Treg-cell versus Tconv-cell expansion in CD25-depleted and nondepleted PBMC cultures was then assessed by flow cytometry, using a live light-scatter entrance gate followed by gates for CD4^+Foxp3^− (left dot plots) and CD4^+Foxp3^+ (right dot plots). […] Proliferation was assessed by, in Panel D, the expression of Ki67 and Panel E CFSE dilution. *denotes insufficient number of cells for evaluation. […]
Cell proliferation was measured from day 2 to 3 as radioactivity incorporated from [H^3] thymidine (1 μCi per well, Hartmann Analytic GmbH) into DNA, using a liquid scintillation counter (PerkinElmer). Results are expressed as counts per minute (cpm). […]
For phenotypic analysis, cells were stained with the appropriate antibodies for 20 min at 4° C., washed once with FACS buffer (PBS, 0.1% BSA, 0.2% NaN3), and fixed with 2% paraformaldehyde. […] Data were analyzed using FlowJo Version 9.4.11 software (TreeStar). Results are shown as log 10 fluorescence intensities. […]

[1] = tested on: PBMC samples taken from RA patients; experiment: In vitro RESTORE system: cytokine production by PBMC samples from RA patients; details: OKT3 1 μg/ml
Source text: The purpose of the RESTORE method application was definition of safety parameters of the use of TAB08 antibody and the possibility of participation of RA patients in clinical trials, in particular:
To determine the levels of response of peripheral blood mononuclear cells of RA patients to various concentrations of TAB08, i.e. trace the dose-dependence of cytokine release by mononuclear cells exposed to TAB08 in vitro.
To determine the ability of methylprednisolone, which has an anti-inflammatory effect, to suppress TAB08-induced cytokine release.
(§1) PBMC were cultured in supplemented RPMI 1640 containing 10% AB-positive heat-inactivated human serum (Sigma) for two days at high cell density (HD; 1×10^7/ml) to allow tissue-like interactions. Cells were then harvested and cultured under standard conditions (1×10^6/ml) in 96 or 48-well flat-bottom tissue culture plates in a final volume of 0.2 or 0.6 ml in a humidified incubator at 37° C. with 5% CO2. Intracellular Ki67 staining was used to measure cell proliferation. For intracellular staining of Foxp3, Ki67 and CD4, cells were first surface stained, permeabilized with Fix/Perm (eBioscience), and stained with the appropriate antibodies diluted in Perm/Wash (eBioscience). FACS analysis was performed using a FACSCalibur flow cytometer (BD Biosciences). Data were analyzed using FlowJo software (TreeStar).

regulatory T cells = experiment: Regulatory T cells and Ki67+ Tregs in RESTORE system, PBMC samples from RA patients (Table 16)
Procedure: as §1

[2] = tested on: anti-CD3 stimulated CFSE-labeled CD4+ T cells; experiment: Treg-cell suppression assay; details: Enbrel during Treg-cell expansion, RA patient

C[C@H]1C[C@@H]2[C@H]([C@@H](O)C[C@@]3(C)[C@H]2CC[C@]3(O)C(=O)CO)[C@@]2(C)C=CC(=O)C=C12 [MP, methylprednisolone]
suppression of division of CD4+ Tconv cells (CFSE) (Treg cells): ~80%

OKT3: Clinical grade OKT3 (Janssen-Cilag), anti-CD3 (anti-TCR) antibody used as stimulus
IL-2 production [1]: 0.00 pg/mL | % FoxP3+/CD4+ (regulatory T cells; Patient 0104, OKT3 1 μg_mL): 4.96% | % Ki67+/FoxP3+ CD4+ (regulatory T cells; Patient 0104, OKT3 1 μg_mL): 84.9% | % FoxP3+/CD4+ (regulatory T cells; Patient 0105, OKT3 1 μg_mL): 5.1% | % Ki67+/FoxP3+ CD4+ (regulatory T cells; Patient 0105, OKT3 1 μg_mL): 80.5% | % FoxP3+/CD4+ (regulatory T cells; Patient 0204, OKT3 1 μg_mL): 4.52% | % Ki67+/FoxP3+ CD4+ (regulatory T cells; Patient 0204, OKT3 1 μg_mL): 77.7% | % FoxP3+/CD4+ (regulatory T cells; Patient 0205, OKT3 1 μg_mL): 4.62% | % Ki67+/FoxP3+ CD4+ (regulatory T cells; Patient 0205, OKT3 1 μg_mL): 67.7% | % FoxP3+/CD4+ (regulatory T cells; Patient 0206, OKT3 1 ug_ml): 2.79% | % Ki67+/FoxP3+ CD4+ (regulatory T cells; Patient 0206, OKT3 1 ug_ml): 80.8%

Enbrel
effect on suppressive activity of TAB08-expanded Treg cells [2]: did not lead to further enhancement of suppressive activity
